Assay results: ChEMBL document CHEMBL1201862, “PubChem BioAssay data set” (2004)
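Assay format: 96-well plates, 48-hour exposure. Abbreviation: GI50, concentration required for 50% inhibition of growth.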 Calls of active or inactive are those of the source. Rule as the data show it: active = GI50 up to about 1.1 µM and inactive = higher.

What was measured:
Assay in all cases: DTP human tumour cell line panel, 48 h
SNB-75 = system: SNB-75
SF-295 = system: SF-295
OVCAR-3 = system: OVCAR-3
MOLT-4 = system: MOLT-4
K562 = system: K562
U-251 = system: U-251
SW-620 = system: SW-620
IGROV-1 = system: IGROV-1
MDA-MB-231 = system: MDA-MB-231
HCT-116 = system: HCT-116
SK-MEL-5 = system: SK-MEL-5
SR = system: SR
RPMI-8226 = system: RPMI-8226
DU-145 = system: DU-145
HCC 2998 = system: HCC 2998
SF-268 = system: SF-268
NCI-H460 = system: NCI-H460
HL-60 = system: HL-60
HOP-92 = system: HOP-92
OVCAR-4 = system: OVCAR-4

Measured: GI50

[O-][S+](Nc1ccccc1)c1cccc(Cl)c1 (centres undefined)
inactive: SNB-75 76.6 µM | SF-295 65.3 µM | OVCAR-3 > 100 µM | MOLT-4 34.7 µM | K562 37.3 µM | U-251 53.2 µM | SW-620 > 100 µM | IGROV-1 46.3 µM | MDA-MB-231 66.1 µM | HCT-116 45.2 µM | SK-MEL-5 42.8 µM | SR 25.5 µM | RPMI-8226 43.5 µM | DU-145 75 µM | HCC 2998 11.3 µM | SF-268 44.1 µM | NCI-H460 42.5 µM | HL-60 48.6 µM

O=C(CCc1cc(O)cc(O)c1)NCCc1ccc(O)c(O)c1
inactive: SNB-75 > 100 µM | SF-295 > 100 µM | OVCAR-3 > 100 µM | MOLT-4 > 100 µM | K562 > 10 µM | U-251 > 100 µM | HOP-92 > 100 µM | SW-620 > 100 µM | IGROV-1 > 100 µM | MDA-MB-231 > 100 µM | HCT-116 > 100 µM | SK-MEL-5 > 100 µM | SR > 100 µM | RPMI-8226 > 100 µM | DU-145 > 100 µM | HCC 2998 > 100 µM | SF-268 > 100 µM | NCI-H460 > 100 µM

CC1(C)OCC(C2CCC3(C)C4=CCC5C(C)(C)C(O)CCC5(C)C4CCC23C)CC(O)C1O (centres undefined)
inactive: SNB-75 15.1 µM | SF-295 16.9 µM | OVCAR-3 14.6 µM | MOLT-4 14.4 µM | K562 4.22 µM | U-251 15.4 µM | OVCAR-4 14.1 µM | HOP-92 16.2 µM | SW-620 17.8 µM | IGROV-1 18.7 µM | MDA-MB-231 18.1 µM | HCT-116 13.2 µM | SK-MEL-5 15.1 µM | RPMI-8226 6.75 µM | DU-145 14.7 µM | HCC 2998 15.5 µM | SF-268 18.3 µM | NCI-H460 17 µM | HL-60 12.3 µM

Cn1ccc(C(=O)NCCCCCNC(=O)c2ccn(C)c(=O)c2O)c(O)c1=O
inactive: U-251 > 100 µM | OVCAR-4 > 100 µM | HOP-92 > 100 µM | SW-620 > 100 µM | MDA-MB-231 > 100 µM | HCT-116 > 100 µM | SK-MEL-5 > 100 µM | SR > 100 µM | DU-145 > 100 µM | HCC 2998 > 100 µM | SF-268 > 100 µM | NCI-H460 > 100 µM | HL-60 > 100 µM

Cc1cc2nc3c(C#N)c4c(c(Nc5ccc(F)cc5)n3c2cc1C)CCC4
inactive: SNB-75 > 100 µM | SF-295 > 100 µM | OVCAR-3 > 100 µM | MOLT-4 > 100 µM | K562 > 100 µM | U-251 > 100 µM | OVCAR-4 > 100 µM | SW-620 > 100 µM | IGROV-1 > 100 µM | MDA-MB-231 > 100 µM | HCT-116 > 100 µM | SK-MEL-5 > 100 µM | SR > 100 µM | RPMI-8226 > 100 µM | DU-145 > 100 µM | SF-268 > 100 µM | NCI-H460 > 100 µM | HL-60 > 100 µM

Nc1nc(Nc2ccc(Cl)cc2)sc1C(=O)c1cc2ccccc2oc1=O
inactive: SNB-75 7.55 µM | OVCAR-3 4.84 µM | K562 33.8 µM | U-251 18.8 µM | OVCAR-4 27.7 µM | HOP-92 53.2 µM | SW-620 54.1 µM | IGROV-1 56.6 µM | MDA-MB-231 37.8 µM | HCT-116 23.1 µM | SK-MEL-5 67.6 µM | RPMI-8226 29.4 µM | DU-145 74.6 µM | HCC 2998 41.9 µM | SF-268 18.3 µM | NCI-H460 31 µM | HL-60 33 µM

COc1ccc(OC/C(N)=N/NC(=O)c2ccncc2)cc1
inactive: SNB-75 8.22 µM | SF-295 > 100 µM | OVCAR-3 > 100 µM | MOLT-4 > 100 µM | K562 > 100 µM | U-251 > 100 µM | OVCAR-4 > 100 µM | HOP-92 > 100 µM | SW-620 > 100 µM | IGROV-1 > 100 µM | MDA-MB-231 > 100 µM | HCT-116 > 100 µM | RPMI-8226 > 100 µM | DU-145 > 100 µM | HCC 2998 > 100 µM | SF-268 > 100 µM | NCI-H460 > 100 µM | HL-60 > 100 µM

COc1cc(S(=O)(=O)Nc2nc(-c3ccc(N4C(=O)CSC4c4cccs4)cc3)cs2)ccc1Cl (centres undefined)
inactive: SNB-75 > 100 µM | SF-295 > 100 µM | OVCAR-3 33.7 µM | MOLT-4 22.1 µM | K562 31 µM | U-251 > 100 µM | OVCAR-4 31.3 µM | HOP-92 36.6 µM | SW-620 40.8 µM | IGROV-1 34.3 µM | MDA-MB-231 > 100 µM | HCT-116 45.2 µM | SK-MEL-5 > 100 µM | SR 28.9 µM | DU-145 > 100 µM | SF-268 37.6 µM | NCI-H460 > 100 µM | HL-60 23.2 µM
